Converted amounts (≈) assume the structure as drawn. Read-outs that look alike come from different tables or passages of the source.
What was measured:
Assay in all cases: MIC, broth microdilution
S. aureus GC 1131 = details: Staphylococcus aureus
E. coli GC 3226 = details: Escherichia coli
E. faecalis GC 2265 = details: Enterococcus faecalis
S. epidermidis GC 4935 = details: Staphylococcus epidermidis
E. coli GC 2203 = details: Escherichia coli
E. coli GC 2272 = details: Escherichia coli
E. coli GC 2271 = details: Escherichia coli
E. coli GC 2236 = details: Escherichia coli
S. aureus GC 6335 = details: Staphylococcus aureus
E. faecalis GC 4555 = details: Enterococcus faecalis
E. coli GC 2232 = details: Escherichia coli
E. coli GC 2234 = details: Escherichia coli
Experimental: Antimicrobial susceptibility testing. The in vitro activities of the antibiotics are determined by the broth microdilution method as recommended by the National Committee for Clinical Laboratory Standards (NCCLS) (1). Mueller-Hinton II broth (MHBII)(BBL Cockeysville, Md.) is the medium employed in the testing procedures. Microtiter plates containing serial dilutions of each antimicrobial agent are inoculated with each organism to yield the appropriate density (10^5 CFU/ml) in a 100 μl final volume. The plates are incubated for 18-22 hours at 35° C. in ambient air.
Representative compounds were first incubated in mouse serum for an hour prior to the in vitro testing against a panel of selected gram-positive and gram-negative bacteria strains. All compounds were also pre-incubated in water for an hour prior to testing as control.

S. agalactiae GC 4564 = details: Streptococcus agalactiae
S. pneumoniae* GC 4465 = details: Streptococcus pneumoniae
P. aeruginosa GC 2214 = details: Pseudomonas aeruginosa
E. faecalis GC 2267 = details: Enterococcus faecalis
E. coli GC 4559 = details: Escherichia coli
S. pyogenes GC 4563 = details: Streptococcus pyogenes
Experimental: Antimicrobial susceptibility testing. The in vitro activities of the antibiotics are determined by the broth microdilution method as recommended by the National Committee for Clinical Laboratory Standards (NCCLS) (1). Mueller-Hinton II broth (MHBII)(BBL Cockeysville, Md.) is the medium employed in the testing procedures. Microtiter plates containing serial dilutions of each antimicrobial agent are inoculated with each organism to yield the appropriate density (10^5 CFU/ml) in a 100 μl final volume. The plates are incubated for 18-22 hours at 35° C. in ambient air. […] Standard Pharmacological Test Procedures
Presented in Tables I-XIII are representative compounds of Formula I which were evaluated against a panel of 40 selected gram-positive and gram-negative bacteria strains by pre-incubation in water, mouse serum or human serum. Representative compounds were first incubated in mouse serum for an hour prior to the in vitro testing against a panel of selected gram-positive and gram-negative bacteria strains. All compounds were also pre-incubated in water for an hour prior to testing as control. Representative compounds of Formula I were incubated in human serum prior to MIC determination.

S. pneumoniae+ GC 4465 = details: Streptococcus pneumoniae
[1] = read-out: MINIMAL INHIBITORY CONCENTRATION MIC, Human Serum
[2] = read-out: MINIMAL INHIBITORY CONCENTRATION MIC, Mouse Serum
[3] = read-out: MINIMAL INHIBITORY CONCENTRATION MIC, Water

## CCCCOC(=O)N(CC(=O)Nc1cc(N(C)C)c2c(c1O)C(=O)C1=C(O)[C@]3(O)C(=O)C(C(N)=O)=C(O)[C@@H](N(C)C)[C@@H]3C[C@@H]1C2)C(C)(C)C [Example 58, butyl 2-{[(5aR,6aS,7S,10aS)-9-(aminocarbonyl)-4,7-bis(dimethylamino)-1,8,10a,11-tetrahydroxy-10,12-dioxo-5,5a,6,6a,7,10,10a,12-octahydrotetracen-2-yl]amino}-2-oxoethyl(tert-butyl)carbamate]
S. aureus GC 1131; GC1131, read-out: MINIMAL INHIBITORY CONCENTRATION MIC, Human Serum
  MIC: 4 µg/mL (≈ 5.83 µM)
S. aureus GC 1131; GC1131, read-out: MINIMAL INHIBITORY CONCENTRATION MIC, Mouse Serum
  MIC: 2 µg/mL (≈ 2.92 µM)
S. aureus GC 1131; GC1131, read-out: MINIMAL INHIBITORY CONCENTRATION MIC, Water
  MIC: 4 µg/mL (≈ 5.83 µM)
E. coli GC 3226; GC3226, read-out: MINIMAL INHIBITORY CONCENTRATION MIC, Human Serum
  MIC: > 64 µg/mL
E. coli GC 3226; GC3226, read-out: MINIMAL INHIBITORY CONCENTRATION MIC, Mouse Serum
  MIC: > 64 µg/mL
E. coli GC 3226; GC3226, read-out: MINIMAL INHIBITORY CONCENTRATION MIC, Water
  MIC: > 64 µg/mL
E. faecalis GC 2265; GC2265, read-out: MINIMAL INHIBITORY CONCENTRATION MIC, Human Serum
  MIC: 4 µg/mL (≈ 5.83 µM)
E. faecalis GC 2265; GC2265, read-out: MINIMAL INHIBITORY CONCENTRATION MIC, Mouse Serum
  MIC: 4 µg/mL (≈ 5.83 µM)
E. faecalis GC 2265; GC2265, read-out: MINIMAL INHIBITORY CONCENTRATION MIC, Water
  MIC: 4 µg/mL (≈ 5.83 µM)
S. epidermidis GC 4935; GC4935, read-out: MINIMAL INHIBITORY CONCENTRATION MIC, Human Serum
  MIC: 4 µg/mL (≈ 5.83 µM)
S. epidermidis GC 4935; GC4935, read-out: MINIMAL INHIBITORY CONCENTRATION MIC, Mouse Serum
  MIC: 4 µg/mL (≈ 5.83 µM)
S. epidermidis GC 4935; GC4935, read-out: MINIMAL INHIBITORY CONCENTRATION MIC, Water
  MIC: 8 µg/mL (≈ 11.7 µM)
E. coli GC 2203; GC2203, read-out: MINIMAL INHIBITORY CONCENTRATION MIC, Human Serum
  MIC: > 64 µg/mL
E. coli GC 2203; GC2203, read-out: MINIMAL INHIBITORY CONCENTRATION MIC, Mouse Serum
  MIC: > 64 µg/mL
E. coli GC 2203; GC2203, read-out: MINIMAL INHIBITORY CONCENTRATION MIC, Water
  MIC: > 64 µg/mL
E. coli GC 2272; GC2272, read-out: MINIMAL INHIBITORY CONCENTRATION MIC, Human Serum
  MIC: > 64 µg/mL
E. coli GC 2272; GC2272, read-out: MINIMAL INHIBITORY CONCENTRATION MIC, Mouse Serum
  MIC: > 64 µg/mL
E. coli GC 2272; GC2272, read-out: MINIMAL INHIBITORY CONCENTRATION MIC, Water
  MIC: > 64 µg/mL
E. coli GC 2271; GC2271, read-out: MINIMAL INHIBITORY CONCENTRATION MIC, Human Serum
  MIC: > 64 µg/mL
E. coli GC 2271; GC2271, read-out: MINIMAL INHIBITORY CONCENTRATION MIC, Mouse Serum
  MIC: > 64 µg/mL
E. coli GC 2271; GC2271, read-out: MINIMAL INHIBITORY CONCENTRATION MIC, Water
  MIC: > 64 µg/mL
E. coli GC 2236; GC2236, read-out: MINIMAL INHIBITORY CONCENTRATION MIC, Human Serum
  MIC: > 64 µg/mL
E. coli GC 2236; GC2236, read-out: MINIMAL INHIBITORY CONCENTRATION MIC, Mouse Serum
  MIC: > 64 µg/mL
E. coli GC 2236; GC2236, read-out: MINIMAL INHIBITORY CONCENTRATION MIC, Water
  MIC: > 64 µg/mL
S. aureus GC 6335; GC6335, read-out: MINIMAL INHIBITORY CONCENTRATION MIC, Human Serum
  MIC: 4 µg/mL (≈ 5.83 µM)
S. aureus GC 6335; GC6335, read-out: MINIMAL INHIBITORY CONCENTRATION MIC, Mouse Serum
  MIC: 4 µg/mL (≈ 5.83 µM)
S. aureus GC 6335; GC6335, read-out: MINIMAL INHIBITORY CONCENTRATION MIC, Water
  MIC: 4 µg/mL (≈ 5.83 µM)
E. faecalis GC 4555; GC4555, read-out: MINIMAL INHIBITORY CONCENTRATION MIC, Human Serum
  MIC: 4 µg/mL (≈ 5.83 µM)
E. faecalis GC 4555; GC4555, read-out: MINIMAL INHIBITORY CONCENTRATION MIC, Mouse Serum
  MIC: 4 µg/mL (≈ 5.83 µM)
E. faecalis GC 4555; GC4555, read-out: MINIMAL INHIBITORY CONCENTRATION MIC, Water
  MIC: 8 µg/mL (≈ 11.7 µM)
E. coli GC 2232; GC2232, read-out: MINIMAL INHIBITORY CONCENTRATION MIC, Human Serum
  MIC: > 64 µg/mL
E. coli GC 2232; GC2232, read-out: MINIMAL INHIBITORY CONCENTRATION MIC, Mouse Serum
  MIC: > 64 µg/mL
E. coli GC 2232; GC2232, read-out: MINIMAL INHIBITORY CONCENTRATION MIC, Water
  MIC: > 64 µg/mL
E. coli GC 2234; GC2234, read-out: MINIMAL INHIBITORY CONCENTRATION MIC, Human Serum
  MIC: > 64 µg/mL
E. coli GC 2234; GC2234, read-out: MINIMAL INHIBITORY CONCENTRATION MIC, Mouse Serum
  MIC: > 64 µg/mL
E. coli GC 2234; GC2234, read-out: MINIMAL INHIBITORY CONCENTRATION MIC, Water
  MIC: > 64 µg/mL
S. agalactiae GC 4564; GC4564, read-out: MINIMAL INHIBITORY CONCENTRATION MIC, Human Serum
  MIC: 16 µg/mL (≈ 23.3 µM)
S. agalactiae GC 4564; GC4564, read-out: MINIMAL INHIBITORY CONCENTRATION MIC, Mouse Serum
  MIC: 8 µg/mL (≈ 11.7 µM)
S. agalactiae GC 4564; GC4564, read-out: MINIMAL INHIBITORY CONCENTRATION MIC, Water
  MIC: 8 µg/mL (≈ 11.7 µM)
S. pneumoniae* GC 4465; [1]
  MIC: 4 µg/mL (≈ 5.83 µM)
S. pneumoniae* GC 4465; [2]
  MIC: 2 µg/mL (≈ 2.92 µM)
S. pneumoniae* GC 4465; [3]
  MIC: 2 µg/mL (≈ 2.92 µM)
P. aeruginosa GC 2214; GC2214, read-out: MINIMAL INHIBITORY CONCENTRATION MIC, Human Serum
  MIC: > 64 µg/mL
P. aeruginosa GC 2214; GC2214, read-out: MINIMAL INHIBITORY CONCENTRATION MIC, Mouse Serum
  MIC: > 64 µg/mL
P. aeruginosa GC 2214; GC2214, read-out: MINIMAL INHIBITORY CONCENTRATION MIC, Water
  MIC: > 64 µg/mL
E. faecalis GC 2267; GC2267, read-out: MINIMAL INHIBITORY CONCENTRATION MIC, Human Serum
  MIC: 4 µg/mL (≈ 5.83 µM)
E. faecalis GC 2267; GC2267, read-out: MINIMAL INHIBITORY CONCENTRATION MIC, Mouse Serum
  MIC: 2 µg/mL (≈ 2.92 µM)
E. faecalis GC 2267; GC2267, read-out: MINIMAL INHIBITORY CONCENTRATION MIC, Water
  MIC: 4 µg/mL (≈ 5.83 µM)
E. coli GC 4559; GC4559, read-out: MINIMAL INHIBITORY CONCENTRATION MIC, Human Serum
  MIC: > 64 µg/mL
E. coli GC 4559; GC4559, read-out: MINIMAL INHIBITORY CONCENTRATION MIC, Mouse Serum
  MIC: > 64 µg/mL
E. coli GC 4559; GC4559, read-out: MINIMAL INHIBITORY CONCENTRATION MIC, Water
  MIC: > 64 µg/mL
S. pyogenes GC 4563; GC4563, read-out: MINIMAL INHIBITORY CONCENTRATION MIC, Human Serum
  MIC: 4 µg/mL (≈ 5.83 µM)
S. pyogenes GC 4563; GC4563, read-out: MINIMAL INHIBITORY CONCENTRATION MIC, Mouse Serum
  MIC: 4 µg/mL (≈ 5.83 µM)
S. pyogenes GC 4563; GC4563, read-out: MINIMAL INHIBITORY CONCENTRATION MIC, Water
  MIC: 4 µg/mL (≈ 5.83 µM)
S. pneumoniae+ GC 4465; [1]
  MIC: 4 µg/mL (≈ 5.83 µM)
S. pneumoniae+ GC 4465; [2]
  MIC: 4 µg/mL (≈ 5.83 µM)
S. pneumoniae+ GC 4465; [3]
  MIC: 8 µg/mL (≈ 11.7 µM)

Source: patent publication US20070049564A1 (Wyeth, priority 2005, published 2007)
